Data: article PMC10648927, “Examining the activity of cefepime-taniborbactam against Burkholderia cepacia complex and Burkholderia gladioli isolated from cystic fibrosis patients in the United States” (Antimicrobial Agents and Chemotherapy, 2023)
In brackets after ≈: the same amount, converted by molar mass.

Experiments:
Design in all cases: agar dilution MIC, growth inhibition of clinical Burkholderia isolates
B. arboris AU14372 = test system: T1, B. arboris AU14372; experiment: organism not typed
T1 construct: AU14372
From the text: (§1) We evaluated the activity of cefepime-taniborbactam against a panel of 140 Bcc clinical isolates (i.e., species ambifaria, arboris, cenocepacia, cepacia, contaminans, diffusa, dolosa, multivorans, pseudomultivorans, pyrrocinia, seminalis, stabilis, ubonensis, and vietnamiensis) and 10 B. gladioli from the Burkholderia cepacia Research Laboratory and Repository (University of Michigan) ([22], [25], [31]) (Supplementary Material, Tables S1 and S2). K. pneumoniae ATCC 700603 carrying bla SHV-18 and K. pneumoniae ATCC BAA-1705 harboring bla KPC strains were used as controls for β-lactam and β-lactamase inhibitor integrity; all controls tested within the anticipated quality control ranges (Table S3). Minimum inhibitory concentration (MIC) results were interpreted using Clinical Laboratory Standards Institute (CLSI) breakpoints, where available ([32]). […] An alternative cefepime-taniborbactam provisional susceptible breakpoint of ≤16 µg/mL is supported by in vivo efficacy data from neutropenic murine infection models (thigh, complicated urinary tract, and lung) ([15] [–] [17]) and data from safety and pharmacokinetics studies in human volunteers ([33], [34]). The cefepime-taniborbactam antimicrobial activity was compared to cefepime, meropenem, meropenem-vaborbactam, and levofloxacin, to data published for first-line agents (e.g., ceftazidime and trimethoprim-sulfamethoxazole) and to those recommended by the CLSI for clinical testing (e.g., minocycline) against the Bcc and B. gladioli panel ([22], [32]). Of note, the MICs of all these agents were determined by the agar dilution method, which alongside broth microdilution, are recommended by the CLSI to assess the antimicrobial susceptibility of Bcc isolates ([32]).

B. cepacia AU22213 = test system: T2, B. cepacia AU22213; experiment: microbe, parasite or virus in culture; settings: Burkholderia cepacia, AU22213
T2 construct: AU22213
From the text: as §1

B. contaminans AU22662 = test system: T3, B. contaminans AU22662; experiment: organism not typed
T3 construct: AU22662
From the text: as §1

B. cenocepacia AU9710 = test system: T4, B. cenocepacia AU9710; experiment: microbe, parasite or virus in culture; settings: Burkholderia cenocepacia, AU9710
T4 construct: AU9710
From the text: as §1

B. gladioli AU21101 = test system: T5, B. gladioli AU21101; experiment: organism not typed
T5 construct: AU21101
From the text: as §1

B. gladioli AU0032 = test system: T6, B. gladioli AU0032; experiment: organism not typed
T6 construct: AU0032
From the text: as §1

B. multivorans AU30438 = test system: T7, B. multivorans AU30438; experiment: microbe, parasite or virus in culture; settings: Burkholderia multivorans, AU30438
T7 construct: AU30438
From the text: as §1

B. cenocepacia AU9512 = test system: T8, B. cenocepacia AU9512; experiment: microbe, parasite or virus in culture; settings: Burkholderia cenocepacia, AU9512
T8 construct: AU9512
From the text: as §1

B. multivorans AU23690 = test system: T9, B. multivorans AU23690; experiment: microbe, parasite or virus in culture; settings: Burkholderia multivorans, AU23690
T9 construct: AU23690
From the text: as §1

B. pyrrocinia AU4348 = test system: T10, B. pyrrocinia AU4348; experiment: microbe, parasite or virus in culture; settings: Burkholderia pyrrocinia, AU4348
T10 construct: AU4348
From the text: as §1

B. ambifaria AU11161 = test system: T11, B. ambifaria AU11161; experiment: microbe, parasite or virus in culture; settings: Burkholderia ambifaria, AU11161
T11 construct: AU11161
From the text: as §1

B. multivorans AU19518 = test system: T12, B. multivorans AU19518; experiment: microbe, parasite or virus in culture; settings: Burkholderia multivorans, AU19518
T12 construct: AU19518
From the text: as §1

B. cenocepacia AU0756 = test system: T13, B. cenocepacia AU0756; experiment: microbe, parasite or virus in culture; settings: Burkholderia cenocepacia, AU0756
T13 construct: AU0756
From the text: as §1

B. cenocepacia AU0583 = test system: T14, B. cenocepacia AU0583; experiment: microbe, parasite or virus in culture; settings: Burkholderia cenocepacia, AU0583
T14 construct: AU0583
From the text: as §1

B. multivorans AU10897 = test system: T15, B. multivorans AU10897; experiment: microbe, parasite or virus in culture; settings: Burkholderia multivorans, AU10897
T15 construct: AU10897
From the text: as §1

B. cepacia AU17630 = test system: T16, B. cepacia AU17630; experiment: microbe, parasite or virus in culture; settings: Burkholderia cepacia, AU17630
T16 construct: AU17630
From the text: as §1

B. cenocepacia AU12265 = test system: T17, B. cenocepacia AU12265; experiment: microbe, parasite or virus in culture; settings: Burkholderia cenocepacia, AU12265
T17 construct: AU12265
From the text: as §1

B. ambifaria AU20319 = test system: T18, B. ambifaria AU20319; experiment: microbe, parasite or virus in culture; settings: Burkholderia ambifaria, AU20319
T18 construct: AU20319
From the text: as §1

B. multivorans AU25543 = test system: T19, B. multivorans AU25543; experiment: microbe, parasite or virus in culture; settings: Burkholderia multivorans, AU25543
T19 construct: AU25543
From the text: as §1

B. multivorans AU23668 = test system: T20, B. multivorans AU23668; experiment: microbe, parasite or virus in culture; settings: Burkholderia multivorans, AU23668
T20 construct: AU23668
From the text: as §1

B. cenocepacia AU12571 = test system: T21, B. cenocepacia AU12571; experiment: microbe, parasite or virus in culture; settings: Burkholderia cenocepacia, AU12571
T21 construct: AU12571
From the text: as §1

B. vietnamiensis AU28056 = test system: T22, B. vietnamiensis AU28056; experiment: microbe, parasite or virus in culture; settings: Burkholderia vietnamiensis, AU28056
T22 construct: AU28056
From the text: as §1

Compound	MIC (B. arboris AU14372)	MIC (B. cepacia AU22213)	MIC (B. contaminans AU22662)	MIC (B. cenocepacia AU9710)	MIC (B. gladioli AU21101)	MIC (B. gladioli AU0032)	MIC (B. multivorans AU30438)	MIC (B. cenocepacia AU9512)	MIC (B. multivorans AU23690)	MIC (B. pyrrocinia AU4348)	MIC (B. ambifaria AU11161)	MIC (B. multivorans AU19518)	MIC (B. cenocepacia AU0756)	MIC (B. cenocepacia AU0583)	MIC (B. multivorans AU10897)	MIC (B. cepacia AU17630)	MIC (B. cenocepacia AU12265)	MIC (B. ambifaria AU20319)	MIC (B. multivorans AU25543)	MIC (B. multivorans AU23668)	other results
CO/N=C(\C(=O)N[C@@H]1C(=O)N2C(C(=O)[O-])=C(C[N+]3(C)CCCC3)CS[C@H]12)c1csc(N)n1 [cefepime]	> 32 µg/mL	32 µg/mL (≈ 66.6 µM)	16 µg/mL (≈ 33.3 µM)	16 µg/mL (≈ 33.3 µM)	16 µg/mL (≈ 33.3 µM)	> 32 µg/mL	16 µg/mL (≈ 33.3 µM)	32 µg/mL (≈ 66.6 µM)	32 µg/mL (≈ 66.6 µM)	32 µg/mL (≈ 66.6 µM)	> 32 µg/mL	32 µg/mL (≈ 66.6 µM)	> 32 µg/mL	32 µg/mL (≈ 66.6 µM)	32 µg/mL (≈ 66.6 µM)	> 32 µg/mL	16 µg/mL (≈ 33.3 µM)	> 32 µg/mL	4 µg/mL (≈ 8.32 µM)	4 µg/mL (≈ 8.32 µM)	MIC (B. cenocepacia AU12571): 16 µg/mL (≈ 33.3 µM); MIC (B. vietnamiensis AU28056): 16 µg/mL (≈ 33.3 µM)
C[C@H]1COc2c(N3CCN(C)CC3)c(F)cc3c(=O)c(C(=O)O)cn1c23 [levofloxacin]	8 µg/mL (≈ 22.1 µM)	2 µg/mL (≈ 5.53 µM)	4 µg/mL (≈ 11.1 µM)	4 µg/mL (≈ 11.1 µM)	1 µg/mL (≈ 2.77 µM)	8 µg/mL (≈ 22.1 µM)	4 µg/mL (≈ 11.1 µM)	16 µg/mL (≈ 44.3 µM)	> 32 µg/mL	> 32 µg/mL	32 µg/mL (≈ 88.6 µM)	32 µg/mL (≈ 88.6 µM)	> 32 µg/mL	> 32 µg/mL	16 µg/mL (≈ 44.3 µM)	4 µg/mL (≈ 11.1 µM)	4 µg/mL (≈ 11.1 µM)	1 µg/mL (≈ 2.77 µM)	2 µg/mL (≈ 5.53 µM)	2 µg/mL (≈ 5.53 µM)	MIC (B. cenocepacia AU12571): 8 µg/mL (≈ 22.1 µM); MIC (B. vietnamiensis AU28056): 8 µg/mL (≈ 22.1 µM)
C[C@@H](O)[C@H]1C(=O)N2C(C(=O)O)=C(S[C@@H]3CN[C@H](C(=O)N(C)C)C3)[C@H](C)[C@H]12 [meropenem]	16 µg/mL (≈ 41.7 µM)	4 µg/mL (≈ 10.4 µM)	4 µg/mL (≈ 10.4 µM)	4 µg/mL (≈ 10.4 µM)	1 µg/mL (≈ 2.61 µM)	2 µg/mL (≈ 5.22 µM)	4 µg/mL (≈ 10.4 µM)	4 µg/mL (≈ 10.4 µM)	4 µg/mL (≈ 10.4 µM)	4 µg/mL (≈ 10.4 µM)	8 µg/mL (≈ 20.9 µM)	16 µg/mL (≈ 41.7 µM)	32 µg/mL (≈ 83.4 µM)	4 µg/mL (≈ 10.4 µM)	8 µg/mL (≈ 20.9 µM)	4 µg/mL (≈ 10.4 µM)	4 µg/mL (≈ 10.4 µM)	4 µg/mL (≈ 10.4 µM)	1 µg/mL (≈ 2.61 µM)	2 µg/mL (≈ 5.22 µM)	MIC (B. cenocepacia AU12571): 2 µg/mL (≈ 5.22 µM); MIC (B. vietnamiensis AU28056): 4 µg/mL (≈ 10.4 µM)
